{
  "source": "patent US20140329870A1",
  "about": "“COMPOSITIONS COMPRISING ISOSORBIDE MONOESTERS AND ISOTHIAZOLINONES” (CLARIANT INTERNATIONAL LTD., priority 2011, published 2014)",
  "key": {"[1]": {"system": "bacteria, fungi and yeasts", "details": "general statement, no test data given, cited from earlier work"}, "Candida albicans": {"system": "Candida albicans", "test": "Minimum inhibitory concentration (MIC) in agar, antimicrobial efficacy", "format": "cell-based", "details": "Sabouraud 4% dextrose agar pH 5.6", "method": "(§1) Below, the antimicrobial efficacy of a composition according to the invention consisting of 50% by weight of isorbide caprylate 1 and 50% by weight of a 2% by weight strength solution of methylisothiazolinone in water against bacteria, fungi and yeasts is examined (hereinbelow, the composition is referred to as “composition A”). For the tests with bacteria, composition A was diluted with butyl polyglycol and then, at 50° C., added to liquid CASO agar (casein-peptone agar) buffered to pH 7 (+/−0.2) in various concentrations (hereinbelow referred to as compositions B1, B2, etc.). For the tests with fungi and yeasts, composition A was diluted with butyl polyglycol and then added to liquid Sabouraud 4% dextrose agar buffered to pH 5.6 (+/−0.2) in various concentrations (hereinbelow referred to as compositions PH1, PH2, etc.). The compositions B1, B2, etc. and PH1, PH2 etc. were each poured into Petri dishes and each inoculated with identical amounts of bacteria, fungi and yeasts. The minimum inhibitory concentration (MIC) is the concentration at which inhibition of the growth of the bacteria, fungi and yeasts in the compositions B1, B2, etc. and PH1, PH2, etc. occurs.\n(§2) The minimum inhibitory concentrations for the pure substances isosorbide caprylate 1 and methylisothiazolinone were determined analogously.\n(§3) The values determined for the minimum inhibitory concentrations “MIC mixture”, stated in Table 1 below, are based on the concentrations of composition A.\n(§4) The values determined for the minimum inhibitory concentrations “QA” and “QB”, stated in Table 1 below, have already been corrected for the dilution effect of the water and the butyl polyglycol.\n(§5) Kull et al., Applied Microbiology 1961, 9, 538 using the formula below: […]\n(§6) where • Qa is the minimum inhibitory concentration of isosorbide caprylate 1 in the mixture employed, • QA is the minimum inhibitory concentration of isosorbide caprylate 1, • Qb is the minimum inhibitory concentration of methylisothiazolinone in the mixture employed and • QB is the minimum inhibitory concentration of methylisothiazolinone.\n(§7) The values for Qa and Qb are determined from the values for the mixtures (“MIC mixture”) by multiplying the minimum inhibitory concentrations determined for Qa with the factor 0.5 and for Qb with the factor 0.01, because of the proportions of the ingredients—50% by weight of isosorbide caprylate 1 and 50% by weight of a 2% by weight strength solution of methylisothiazolinone in water—in composition A according to the invention examined.\n(§8) If an SE value >1 is obtained, an antagonistic effect is present."}, "Pseudomonas oleovorans": {"system": "Pseudomonas oleovorans", "test": "Minimum inhibitory concentration (MIC) in agar, antimicrobial efficacy", "format": "cell-based", "details": "CASO agar pH 7", "method": "as §1, §2, §3, §4, §5, §6, §7, §8"}, "Proteus vulgaris": {"system": "Proteus vulgaris", "test": "Minimum inhibitory concentration (MIC) in agar, antimicrobial efficacy", "format": "cell-based", "details": "CASO agar pH 7", "method": "as §1, §2, §3, §4, §5, §6, §7, §8"}, "Enterobacter aerogenes": {"system": "Enterobacter aerogenes", "test": "Minimum inhibitory concentration (MIC) in agar, antimicrobial efficacy", "format": "cell-based", "details": "CASO agar pH 7", "method": "as §1, §2, §3, §4, §5, §6, §7, §8"}, "Penicillium minioluteum": {"system": "Penicillium minioluteum", "test": "Minimum inhibitory concentration (MIC) in agar, antimicrobial efficacy", "format": "cell-based", "details": "Sabouraud 4% dextrose agar pH 5.6", "method": "as §1, §2, §3, §4, §5, §6, §7, §8"}, "Fusarium solani": {"system": "Fusarium solani", "test": "Minimum inhibitory concentration (MIC) in agar, antimicrobial efficacy", "format": "cell-based", "details": "Sabouraud 4% dextrose agar pH 5.6", "method": "as §1, §2, §3, §4, §5, §6, §7, §8"}, "Penicillium funicolosium": {"system": "Penicillium funicolosium", "test": "Minimum inhibitory concentration (MIC) in agar, antimicrobial efficacy", "format": "cell-based", "details": "Sabouraud 4% dextrose agar pH 5.6", "method": "as §1, §2, §3, §4, §5, §6, §7, §8"}, "Aspergillus brasiliensis": {"system": "Aspergillus brasiliensis", "test": "Minimum inhibitory concentration (MIC) in agar, antimicrobial efficacy", "format": "cell-based", "details": "Sabouraud 4% dextrose agar pH 5.6", "method": "as §1, §2, §3, §4, §5, §6, §7, §8"}, "Pseudomonas aeruginosa": {"system": "Pseudomonas aeruginosa", "test": "Minimum inhibitory concentration (MIC) in agar, antimicrobial efficacy", "format": "cell-based", "details": "CASO agar pH 7", "method": "as §1, §2, §3, §4, §5, §6, §7, §8"}, "Aspergillus terreus": {"system": "Aspergillus terreus", "test": "Minimum inhibitory concentration (MIC) in agar, antimicrobial efficacy", "format": "cell-based", "details": "Sabouraud 4% dextrose agar pH 5.6", "method": "as §1, §2, §3, §4, §5, §6, §7, §8"}, "Klebsiella pneumoniae": {"system": "Klebsiella pneumoniae", "test": "Minimum inhibitory concentration (MIC) in agar, antimicrobial efficacy", "format": "cell-based", "details": "CASO agar pH 7", "method": "as §1, §2, §3, §4, §5, §6, §7, §8"}, "Citrobacter freundii": {"system": "Citrobacter freundii", "test": "Minimum inhibitory concentration (MIC) in agar, antimicrobial efficacy", "format": "cell-based", "details": "CASO agar pH 7", "method": "as §1, §2, §3, §4, §5, §6, §7, §8"}, "Staphylococcus aureus": {"system": "Staphylococcus aureus", "test": "Minimum inhibitory concentration (MIC) in agar, antimicrobial efficacy", "format": "cell-based", "details": "CASO agar pH 7", "method": "as §1, §2, §3, §4, §5, §6, §7, §8"}, "Escherichia coli": {"system": "Escherichia coli", "test": "Minimum inhibitory concentration (MIC) in agar, antimicrobial efficacy", "format": "cell-based", "details": "CASO agar pH 7", "method": "as §1, §2, §3, §4, §5, §6, §7, §8"}, "[2]": {"system": "bacteria, fungi and yeasts", "test": "Antimicrobial activity, overall statements on the test series", "format": "cell-based", "method": "as §1, §2, §5"}, "[3]": {"details": "in composition A, MIC mixture x 0.01"}, "[4]": {"details": "pure substance, corrected for dilution"}},
  "note": "Where two headings read alike, the source gives them in different places.",
  "data": [
    {"compound": "CCCCCCCC(=O)O", "note": "[caprylic acid, octanoic acid]", "values": [
      {"measurement": "antimicrobial activity (in words)", "setting": "[1]; at a pH of 6 or above", "value": "no antimicrobial activity"},
      {"measurement": "antimicrobial efficacy (in words)", "setting": "[1]", "value": "antimicrobially effective"}
    ]},
    {"compound": "O[C@@H]1CO[C@H]2[C@@H]1OC[C@@H]2O", "note": "[isosorbide]", "values": [
      {"measurement": "MIC", "setting": "Candida albicans; Candida albicans, Table 2", "value": 10000, "unit": "µg/mL"},
      {"measurement": "MIC", "setting": "Pseudomonas oleovorans; Ectopseudomonas oleovorans, Table 2", "value": 10000, "unit": "µg/mL"},
      {"measurement": "MIC", "setting": "Proteus vulgaris; Proteus vulgaris, Table 2", "value": 10000, "unit": "µg/mL"},
      {"measurement": "MIC", "setting": "Enterobacter aerogenes; Klebsiella aerogenes, Table 2", "value": 10000, "unit": "µg/mL"},
      {"measurement": "MIC", "setting": "Penicillium minioluteum; Talaromyces minioluteus, Table 2", "value": 10000, "unit": "µg/mL"},
      {"measurement": "MIC", "setting": "Fusarium solani; Fusarium solani, Table 2", "value": 10000, "unit": "µg/mL"},
      {"measurement": "MIC", "setting": "Penicillium funicolosium; Penicillium, Table 2", "value": 10000, "unit": "µg/mL"},
      {"measurement": "MIC", "setting": "Aspergillus brasiliensis; Aspergillus brasiliensis, Table 2", "value": 10000, "unit": "µg/mL"},
      {"measurement": "MIC", "setting": "Pseudomonas aeruginosa; Pseudomonas aeruginosa, Table 2", "value": 10000, "unit": "µg/mL"},
      {"measurement": "MIC", "setting": "Aspergillus terreus; Aspergillus terreus, Table 2", "value": 10000, "unit": "µg/mL"},
      {"measurement": "MIC", "setting": "Klebsiella pneumoniae; Klebsiella pneumoniae, Table 2", "value": 10000, "unit": "µg/mL"},
      {"measurement": "MIC", "setting": "Citrobacter freundii; Citrobacter freundii, Table 2", "value": 10000, "unit": "µg/mL"},
      {"measurement": "MIC", "setting": "Staphylococcus aureus; Staphylococcus aureus, Table 2", "value": 10000, "unit": "µg/mL"},
      {"measurement": "MIC", "setting": "Escherichia coli; Escherichia coli, Table 2", "value": 10000, "unit": "µg/mL"},
      {"measurement": "antimicrobial activity (in words)", "setting": "[2]; as shown by the results of Table 2", "value": "neither isosorbide nor isosorbide dicaprylate are antimicrobially active"}
    ]},
    {"compound": "Cn1sccc1=O", "note": "[methylisothiazolinone]", "values": [
      {"measurement": "Qb, calc. (MIC of methylisothiazolinone in the mixture employed)", "setting": "Candida albicans; [3]", "value": 10, "unit": "ppm"},
      {"measurement": "QB, meas. (MIC of methylisothiazolinone)", "setting": "Candida albicans; [4]", "value": 100, "unit": "ppm"},
      {"measurement": "Qb, calc. (MIC of methylisothiazolinone in the mixture employed)", "setting": "Pseudomonas oleovorans; [3]", "value": 5, "unit": "ppm"},
      {"measurement": "QB, meas. (MIC of methylisothiazolinone)", "setting": "Pseudomonas oleovorans; [4]", "value": 5, "unit": "ppm"},
      {"measurement": "Qb, calc. (MIC of methylisothiazolinone in the mixture employed)", "setting": "Proteus vulgaris; [3]", "value": 5, "unit": "ppm"},
      {"measurement": "QB, meas. (MIC of methylisothiazolinone)", "setting": "Proteus vulgaris; [4]", "value": 5, "unit": "ppm"},
      {"measurement": "Qb, calc. (MIC of methylisothiazolinone in the mixture employed)", "setting": "Enterobacter aerogenes; [3]", "value": 15, "unit": "ppm"},
      {"measurement": "QB, meas. (MIC of methylisothiazolinone)", "setting": "Enterobacter aerogenes; [4]", "value": 15, "unit": "ppm"},
      {"measurement": "Qb, calc. (MIC of methylisothiazolinone in the mixture employed)", "setting": "Penicillium minioluteum; [3]", "value": 7.5, "unit": "ppm"},
      {"measurement": "QB, meas. (MIC of methylisothiazolinone)", "setting": "Penicillium minioluteum; [4]", "value": 100, "unit": "ppm"},
      {"measurement": "Qb, calc. (MIC of methylisothiazolinone in the mixture employed)", "setting": "Fusarium solani; [3]", "value": 7.5, "unit": "ppm"},
      {"measurement": "QB, meas. (MIC of methylisothiazolinone)", "setting": "Fusarium solani; [4]", "value": 100, "unit": "ppm"},
      {"measurement": "Qb, calc. (MIC of methylisothiazolinone in the mixture employed)", "setting": "Penicillium funicolosium; [3]", "value": 7.5, "unit": "ppm"},
      {"measurement": "QB, meas. (MIC of methylisothiazolinone)", "setting": "Penicillium funicolosium; [4]", "value": 100, "unit": "ppm"},
      {"measurement": "Qb, calc. (MIC of methylisothiazolinone in the mixture employed)", "setting": "Aspergillus brasiliensis; [3]", "value": 10, "unit": "ppm"},
      {"measurement": "QB, meas. (MIC of methylisothiazolinone)", "setting": "Aspergillus brasiliensis; [4]", "value": 100, "unit": "ppm"},
      {"measurement": "Qb, calc. (MIC of methylisothiazolinone in the mixture employed)", "setting": "Pseudomonas aeruginosa; [3]", "value": 20, "unit": "ppm"},
      {"measurement": "QB, meas. (MIC of methylisothiazolinone)", "setting": "Pseudomonas aeruginosa; [4]", "value": 40, "unit": "ppm"},
      {"measurement": "Qb, calc. (MIC of methylisothiazolinone in the mixture employed)", "setting": "Aspergillus terreus; [3]", "value": 7.5, "unit": "ppm"},
      {"measurement": "QB, meas. (MIC of methylisothiazolinone)", "setting": "Aspergillus terreus; [4]", "value": 100, "unit": "ppm"},
      {"measurement": "Qb, calc. (MIC of methylisothiazolinone in the mixture employed)", "setting": "Klebsiella pneumoniae; [3]", "value": 15, "unit": "ppm"},
      {"measurement": "QB, meas. (MIC of methylisothiazolinone)", "setting": "Klebsiella pneumoniae; [4]", "value": 15, "unit": "ppm"},
      {"measurement": "Qb, calc. (MIC of methylisothiazolinone in the mixture employed)", "setting": "Citrobacter freundii; [3]", "value": 10, "unit": "ppm"},
      {"measurement": "QB, meas. (MIC of methylisothiazolinone)", "setting": "Citrobacter freundii; [4]", "value": 15, "unit": "ppm"},
      {"measurement": "Qb, calc. (MIC of methylisothiazolinone in the mixture employed)", "setting": "Staphylococcus aureus; [3]", "value": 25, "unit": "ppm"},
      {"measurement": "QB, meas. (MIC of methylisothiazolinone)", "setting": "Staphylococcus aureus; [4]", "value": 40, "unit": "ppm"},
      {"measurement": "Qb, calc. (MIC of methylisothiazolinone in the mixture employed)", "setting": "Escherichia coli; [3]", "value": 10, "unit": "ppm"},
      {"measurement": "QB, meas. (MIC of methylisothiazolinone)", "setting": "Escherichia coli; [4]", "value": 10, "unit": "ppm"}
    ]},
    {"compound": "isosorbide monocaprylate", "values": [
      {"measurement": "antimicrobial activity (in words)", "setting": "[2]; concluded from Tables 1 and 2", "value": "significant antimicrobial activity"}
    ]}
  ]
}
